Holding throughout (format): in vivo
Experiment [1] relates to Ctenocephalides felis. The experiment is described as follows: Ctenocephalides felis - oral test. Conditions: application rate 100 ppm in citrated cattle blood; adult cat fleas; after 2 days. How it is done:
Ctenocephalides felis—Oral Test • Solvent: dimethyl sulphoxide To produce a suitable active compound preparation, 10 mg of active compound are mixed with 0.5 ml of dimethyl sulphoxide. Dilution with citrated cattle blood gives the desired concentration. About 20 unfed adult cat fleas (Ctenocephalides felis) are placed into a chamber which is closed at the top and bottom with gauze. A metal cylinder whose bottom end is closed with parafilm is placed onto the chamber. The cylinder contains the blood/active compound preparation, which can be imbibed by the fleas through the parafilm membrane. After 2 days, the kill in % is determined. 100% means that all of the fleas have been killed; 0% means that none of the fleas have been killed.

The next experiment concerns Myzus persicae. In words: Myzus persicae - spray test. Particulars: application rate 500 g/ha; all stages of green peach aphid on Chinese cabbage leaf discs; after 5-6 days. How it is done: Myzus persicae—Spray Test
• Solvent: 78 parts by weight of acetone • 1.5 parts by weight of dimethylformamide • Emulsifier: alkylaryl polyglycol ether
(§1) To produce a suitable active compound preparation, 1 part by weight of active compound is dissolved with the stated parts by weight of solvent and made up with water containing an emulsifier concentration of 1000 ppm until the desired concentration is attained. To produce further test concentrations, the preparation is diluted with emulsifier-containing water.
Discs of Chinese cabbage leaves (Brassica pekinensis) infested by all stages of the green peach aphid (Myzus persicae) are sprayed with an active compound preparation of the desired concentration.
After 5-6 days, the efficacy in % is determined. 100% means that all the aphids have been killed; 0% means that no aphids have been killed.

In another experiment the test system is Phaedon cochleariae. In words: Phaedon cochleariae - spray test. Particulars: application rate 500 g/ha; mustard beetle larvae on Chinese cabbage leaf discs; after 7 days. How it is done: Phaedon cochleariae—Spray Test
(§2) • Solvent: 78.0 parts by weight of acetone • 1.5 parts by weight of dimethylformamide • Emulsifier: alkylaryl polyglycol ether
as §1
After 7 days, the efficacy in % is determined. 100% means that all the beetle larvae have been killed; 0% means that no beetle larvae have been killed.

The subject of another experiment is Lucilia cuprina. The experiment is described as follows: Lucilia cuprina test. Conditions: application rate 100 ppm; L1 larvae in minced horsemeat; after 2 days. How it is done:
Lucilia cuprina Test • Solvent: dimethyl sulphoxide To produce a suitable active compound preparation, 10 mg of active compound are mixed with 0.5 ml of dimethyl sulphoxide, and the concentrate is diluted with water to the desired concentration. About 20 L1 larvae of the Australian sheep blowfly (Lucilia cuprina) are transferred into a test vessel containing minced horsemeat and the active compound preparation of the desired concentration. After 2 days, the kill in % is determined. 100% means that all the larvae have been killed; 0% means that no larvae have been killed.

For experiment [2], the system named is Ctenocephalides felis. In words: Ctenocephalides felis - in vitro contact tests with adult cat fleas. Particulars: application rate 5 μg/cm^2 (500 g/ha); adult cat fleas in coated tubes; after 48 h; dead or moribund. How it is done:
Ctenocephalides felis—In Vitro Contact Tests with Adult Cat Fleas
For the coating of the test tubes, 9 mg of active compound are first dissolved in 1 ml of acetone p.a. and then diluted to the desired concentration with acetone p.a. 250 μl of the solution are distributed homogeneously on the inner walls and the base of a 25 ml test tube by turning and rocking on an orbital shaker (rocking rotation at 30 rpm for 2 h). With 900 ppm active compound solution and internal surface 44.7 cm^2, given homogeneous distribution, an area-based dose of 5 μg/cm^2 is achieved.
After the solvent has evaporated off, the tubes are populated with 5-10 adult cat fleas (Ctenocephalides felis), sealed with a perforated plastic lid and incubated in a horizontal position at room temperature and ambient humidity. After 48 h, efficacy is determined. To this end, the test tubes are stood upright and the fleas are knocked to the base of the tube. Fleas which remain motionless at the base or move in an uncoordinated manner are considered to be dead or moribund.
100% efficacy means that all the fleas were dead or moribund. 0% efficacy means that no fleas were harmed.

A further experiment deals with Spodoptera frugiperda. The experiment is described as follows: Spodoptera frugiperda - spray test. Particulars: application rate 500 g/ha; armyworm caterpillars on maize leaf discs; after 7 days. How it is done: Spodoptera frugiperda—Spray Test
as §2, §1
Leaf discs of maize (Zea mays) are sprayed with an active compound preparation of the desired concentration and, after drying, populated with caterpillars of the armyworm (Spodoptera frugiperda).
After 7 days, the efficacy in % is determined. 100% means that all the caterpillars have been killed; 0% means that no caterpillars have been killed.

A further experiment relates to Boophilus microplus. The experiment is described as follows: Boophilus microplus - injection test. Conditions: application rate 20 μg/animal; injected into engorged adult female cattle ticks; laying of fertile eggs after 7 days. How it is done:
Boophilus microplus—Injection Test
• Solvent: dimethyl sulphoxide
To produce a suitable active compound preparation, 10 mg of active compound are mixed with 0.5 ml of solvent and the concentrate is diluted with solvent to the desired concentration. 1 μl of the active compound solution is injected into the abdomen of 5 engorged adult female cattle ticks (Boophilus microplus). The animals are transferred into dishes and kept in a climate-controlled room.
Efficacy is assessed after 7 days by laying of fertile eggs. Eggs which are not visibly fertile are stored in a climate-controlled cabinet until the larvae hatch after about 42 days. An efficacy of 100% means that none of the ticks has laid any fertile eggs; 0% means that all the eggs are fertile.

Consider `CCS(=O)(=O)c1ccc(-n2cncn2)nc1-c1nc2cc(C(F)(F)F)cnc2n1C` [Example I-22], for which the “efficacy (kill)” value with Ctenocephalides felis [1] and with Lucilia cuprina was 100% each time. Further, the efficacy was found to be 100% in the experiment with Myzus persicae; 100% in the experiment with Phaedon cochleariae; 100% in the experiment with Ctenocephalides felis [2]; 100% in the experiment with Spodoptera frugiperda; 80% in the experiment with Boophilus microplus.

For the origin of these results see patent US10667517B2, “2-(Het)aryl-substituted fused heterocycle derivatives as pesticides” (BAYER CROPSCIENCE AKTIENGESELLSCHSAFT, priority 2015, dated 2020).
